Test results reported in PubChem BioAssay (NCI).
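48-hour exposure; five concentrations; linearly interpolated endpoints. GI50 is the concentration that inhibits growth by half. TGI: total growth inhibition.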

Legend:
Experiment in all cases: NCI-60 cell line screen, 48 h
SNB-19 CNS = system: SNB-19 CNS
HT29 colon = system: HT29 colon
OVCAR-3 ovarian = system: OVCAR-3 ovarian
RPMI-8226 leukemia = system: RPMI-8226 leukemia
MCF7 breast = system: MCF7 breast
BT-549 breast = system: BT-549 breast
SN12C renal = system: SN12C renal
786-0 renal = system: 786-0 renal
A498 renal = system: A498 renal
NCI-H226 lung = system: NCI-H226 lung
OVCAR-5 ovarian = system: OVCAR-5 ovarian
IGROV1 ovarian = system: IGROV1 ovarian
SK-OV-3 ovarian = system: SK-OV-3 ovarian
SK-MEL-2 melanoma = system: SK-MEL-2 melanoma
SF-268 CNS = system: SF-268 CNS
HCT-15 colon = system: HCT-15 colon
DU-145 prostate = system: DU-145 prostate
NCI/ADR-RES ovarian = system: NCI/ADR-RES ovarian
CAKI-1 renal = system: CAKI-1 renal
CCRF-CEM leukemia = system: CCRF-CEM leukemia
A549 NSCLC = system: A549 NSCLC
HOP-92 NSCLC = system: HOP-92 NSCLC
SF-295 CNS = system: SF-295 CNS
NCI-H460 lung = system: NCI-H460 lung
NCI-H23 lung = system: NCI-H23 lung
SR leukemia = system: SR leukemia
UACC-62 melanoma = system: UACC-62 melanoma
ACHN renal = system: ACHN renal
M14 melanoma = system: M14 melanoma
HCT-116 colon = system: HCT-116 colon
EKVX NSCLC = system: EKVX NSCLC
U251 CNS = system: U251 CNS
OVCAR-4 ovarian = system: OVCAR-4 ovarian
MALME-3M melanoma = system: MALME-3M melanoma
K-562 leukemia = system: K-562 leukemia
MOLT-4 leukemia = system: MOLT-4 leukemia
HCC-2998 colon = system: HCC-2998 colon
KM12 colon = system: KM12 colon
MDA-MB-435 = system: MDA-MB-435
UACC-257 melanoma = system: UACC-257 melanoma
SK-MEL-5 melanoma = system: SK-MEL-5 melanoma
UO-31 renal = system: UO-31 renal
PC-3 prostate = system: PC-3 prostate
COLO 205 colon = system: COLO 205 colon
LOX IMVI melanoma = system: LOX IMVI melanoma
T-47D breast = system: T-47D breast
OVCAR-8 ovarian = system: OVCAR-8 ovarian
NCI-H522 lung = system: NCI-H522 lung
RXF 393 renal = system: RXF 393 renal
SK-MEL-28 melanoma = system: SK-MEL-28 melanoma
HL-60(TB) leukemia = system: HL-60(TB) leukemia
HOP-62 NSCLC = system: HOP-62 NSCLC
SW-620 colon = system: SW-620 colon
TK-10 renal = system: TK-10 renal
MDA-MB-231 breast = system: MDA-MB-231 breast
SNB-75 CNS = system: SNB-75 CNS
HS 578T breast = system: HS 578T breast
SF-539 CNS = system: SF-539 CNS

## Nc1nc2c(c3ncccc13)C(c1cccc(Br)c1)Cc1ncccc1-2 (stereo unspecified)
SNB-19 CNS
  GI50: 11.5 µM
  TGI: 25 µM
HT29 colon
  GI50: 0.422 µM
  TGI: 11.4 µM
OVCAR-3 ovarian
  GI50: 0.28 µM
  TGI: 0.858 µM
RPMI-8226 leukemia
  GI50: 5.43 µM
  TGI: 48.7 µM
MCF7 breast
  GI50: 0.37 µM
  TGI: 18.1 µM
BT-549 breast
  GI50: 0.681 µM
  TGI: 6.16 µM
SN12C renal
  GI50: 3.51 µM
  TGI: 33.8 µM
786-0 renal
  GI50: 1.36 µM
  TGI: 12 µM
A498 renal
  GI50: 0.304 µM
  TGI: 1.6 µM
NCI-H226 lung
  GI50: 18.8 µM
  TGI: 67.4 µM
OVCAR-5 ovarian
  GI50: 7.84 µM
  TGI: 31.1 µM
IGROV1 ovarian
  GI50: 2.64 µM
  TGI: 34.3 µM
SK-OV-3 ovarian
  GI50: 0.74 µM
  TGI: 17.4 µM
SK-MEL-2 melanoma
  GI50: 0.871 µM
  TGI: 29.6 µM
SF-268 CNS
  GI50: 0.808 µM
  TGI: 20.1 µM
HCT-15 colon
  GI50: 0.504 µM
  TGI: 15.1 µM
DU-145 prostate
  GI50: 1.13 µM
  TGI: 13.7 µM
NCI/ADR-RES ovarian
  GI50: 0.408 µM
  TGI: 15.1 µM
CAKI-1 renal
  GI50: 0.749 µM
  TGI: 50.4 µM
CCRF-CEM leukemia
  GI50: 0.726 µM
  TGI: 38.6 µM
A549 NSCLC
  GI50: 1.88 µM
  TGI: 39.2 µM
HOP-92 NSCLC
  GI50: 0.95 µM
  TGI: 15.5 µM
SF-295 CNS
  GI50: 0.828 µM
  TGI: 12.4 µM
NCI-H460 lung
  GI50: 0.492 µM
  TGI: 11 µM
NCI-H23 lung
  GI50: 4.52 µM
  TGI: 33 µM
SR leukemia
  GI50: 0.377 µM
  TGI: 32.7 µM
UACC-62 melanoma
  GI50: 0.436 µM
  TGI: 17.4 µM
ACHN renal
  GI50: 1.84 µM
  TGI: 34.8 µM
M14 melanoma
  GI50: 0.509 µM
  TGI: 12.6 µM
HCT-116 colon
  GI50: 0.442 µM
  TGI: 11.4 µM
EKVX NSCLC
  GI50: 3.07 µM
  TGI: 80.8 µM
U251 CNS
  GI50: 0.625 µM
  TGI: 12.7 µM
OVCAR-4 ovarian
  GI50: 7.13 µM
  TGI: 41 µM
MALME-3M melanoma
  GI50: 11.5 µM
  TGI: 31.4 µM
K-562 leukemia
  GI50: 0.539 µM
  TGI: > 100 µM
MOLT-4 leukemia
  GI50: 0.705 µM
  TGI: 31.8 µM
HCC-2998 colon
  GI50: 2.83 µM
  TGI: 13.7 µM
KM12 colon
  GI50: 0.433 µM
  TGI: 13.1 µM
MDA-MB-435
  GI50: 0.256 µM
  TGI: 0.761 µM
UACC-257 melanoma
  GI50: 18.2 µM
  TGI: 54.7 µM
SK-MEL-5 melanoma
  GI50: 0.576 µM
  TGI: 14.3 µM
UO-31 renal
  GI50: 2.6 µM
  TGI: 24.2 µM
PC-3 prostate
  GI50: 0.791 µM
  TGI: 18.5 µM
COLO 205 colon
  GI50: 0.665 µM
  TGI: 3.81 µM
LOX IMVI melanoma
  GI50: 0.647 µM
  TGI: 15.9 µM
T-47D breast
  GI50: 0.524 µM
  TGI: 38.7 µM
OVCAR-8 ovarian
  GI50: 5.24 µM
  TGI: 58 µM
NCI-H522 lung
  GI50: 0.503 µM
  TGI: 11.6 µM
RXF 393 renal
  GI50: 0.765 µM
  TGI: 4.06 µM
SK-MEL-28 melanoma
  GI50: 2.74 µM
  TGI: 22.6 µM
HL-60(TB) leukemia
  GI50: 0.291 µM
  TGI: 7.86 µM
HOP-62 NSCLC
  GI50: 0.88 µM
  TGI: 21.5 µM
SW-620 colon
  GI50: 0.479 µM
  TGI: 21.8 µM
TK-10 renal
  GI50: 7.94 µM
  TGI: 56.2 µM
MDA-MB-231 breast
  GI50: 1.65 µM
  TGI: 18 µM
SNB-75 CNS
  GI50: 0.3 µM
  TGI: 13.4 µM
HS 578T breast
  GI50: 2.9 µM
  TGI: 23.5 µM

## Nc1nc(/C=C\c2ccc([N+](=O)[O-])cc2)nc(N2CCN(c3ccccc3)CC2)n1
SNB-19 CNS
  GI50: > 100 µM
  TGI: > 100 µM
HT29 colon
  GI50: 35.3 µM
  TGI: > 100 µM
OVCAR-3 ovarian
  GI50: 26.9 µM
  TGI: 69.6 µM
RPMI-8226 leukemia
  GI50: 22.9 µM
  TGI: > 100 µM
MCF7 breast
  GI50: 34.2 µM
  TGI: > 100 µM
BT-549 breast
  GI50: 35.7 µM
  TGI: > 100 µM
SN12C renal
  GI50: 42.3 µM
  TGI: > 100 µM
786-0 renal
  GI50: 45.8 µM
  TGI: > 100 µM
A498 renal
  GI50: 37.6 µM
  TGI: > 100 µM
NCI-H226 lung
  GI50: 40.8 µM
  TGI: > 100 µM
OVCAR-5 ovarian
  GI50: 89 µM
  TGI: > 100 µM
IGROV1 ovarian
  GI50: 20.1 µM
  TGI: 54.1 µM
SK-OV-3 ovarian
  GI50: 28.7 µM
  TGI: 77 µM
SK-MEL-2 melanoma
  GI50: 30.2 µM
  TGI: 81.3 µM
SF-268 CNS
  GI50: 96.7 µM
  TGI: > 100 µM
HCT-15 colon
  GI50: 25.3 µM
  TGI: > 100 µM
DU-145 prostate
  GI50: 40 µM
  TGI: > 100 µM
NCI/ADR-RES ovarian
  GI50: 25.3 µM
  TGI: 77.3 µM
CAKI-1 renal
  GI50: 22.5 µM
  TGI: 45.8 µM
CCRF-CEM leukemia
  GI50: 23.2 µM
  TGI: 74.6 µM
SF-539 CNS
  GI50: > 100 µM
  TGI: > 100 µM
A549 NSCLC
  GI50: 38.2 µM
  TGI: > 100 µM
HOP-92 NSCLC
  GI50: 44.2 µM
  TGI: > 100 µM
SF-295 CNS
  GI50: 38.4 µM
  TGI: > 100 µM
NCI-H460 lung
  GI50: 35.5 µM
  TGI: > 100 µM
SR leukemia
  GI50: 21.3 µM
  TGI: 60.2 µM
UACC-62 melanoma
  GI50: 18.9 µM
  TGI: 43.6 µM
ACHN renal
  GI50: 30.2 µM
  TGI: > 100 µM
M14 melanoma
  GI50: 25.6 µM
  TGI: 62.9 µM
HCT-116 colon
  GI50: 24.8 µM
  TGI: > 100 µM
EKVX NSCLC
  GI50: 43.4 µM
  TGI: > 100 µM
U251 CNS
  GI50: 38.2 µM
  TGI: > 100 µM
OVCAR-4 ovarian
  GI50: 53.3 µM
  TGI: > 100 µM
K-562 leukemia
  GI50: 26.5 µM
  TGI: 79.6 µM
MOLT-4 leukemia
  GI50: 27.4 µM
  TGI: > 100 µM
HCC-2998 colon
  GI50: 41 µM
  TGI: 96.2 µM
KM12 colon
  GI50: 20.7 µM
  TGI: 53.8 µM
MDA-MB-435
  GI50: 20.5 µM
  TGI: 41.7 µM
UACC-257 melanoma
  GI50: 25.1 µM
  TGI: 61.5 µM
SK-MEL-5 melanoma
  GI50: 18.2 µM
  TGI: 33.1 µM
UO-31 renal
  GI50: 27.7 µM
  TGI: > 100 µM
PC-3 prostate
  GI50: 23.7 µM
  TGI: 67.6 µM
COLO 205 colon
  GI50: 19 µM
  TGI: 55.2 µM
LOX IMVI melanoma
  GI50: 30.2 µM
  TGI: > 100 µM
T-47D breast
  GI50: 23.1 µM
  TGI: 61 µM
OVCAR-8 ovarian
  GI50: 29.7 µM
  TGI: > 100 µM
NCI-H522 lung
  GI50: 18.4 µM
  TGI: 50.5 µM
RXF 393 renal
  GI50: 29.3 µM
  TGI: 93 µM
SK-MEL-28 melanoma
  GI50: 41.7 µM
  TGI: > 100 µM
HL-60(TB) leukemia
  GI50: 20 µM
  TGI: 58.9 µM
HOP-62 NSCLC
  GI50: 36.2 µM
  TGI: > 100 µM
SW-620 colon
  GI50: 40.4 µM
  TGI: > 100 µM
TK-10 renal
  GI50: 20.5 µM
  TGI: 65 µM
MDA-MB-231 breast
  GI50: 20.8 µM
  TGI: 58.1 µM
SNB-75 CNS
  GI50: 39.8 µM
  TGI: > 100 µM
HS 578T breast
  GI50: 80 µM
  TGI: > 100 µM
